Measured values: patent US20040019430A1, “Methods and systems for analyzing complex biological systems” (priority 2001, published 2004)

Columns and labels:
[1] = test system: Saccharomyces cerevisiae wild type strain BY4743; assay: AF1 combined gene expression and metabolite data mapped to KEGG reactions and pathways; type: cell-based; conditions: yeast AF1
Description: In AF1, two different technologies were utilized: gene expression analysis (for examination of mRNA expression) and metabolite analysis. […] As noted previously, existing metabolic databases may be helpful in practicing the methods and systems of the present invention, but many databases include limitations that make their use in data analysis and pathway mapping less than straightforward. […] This caveat to KEGG makes it difficult to pinpoint the correct pathway when attempting to link a gene to a specific pathway. […] The pathway score indicates how meaningful the mapping is, or how likely it is to be correctly indicative of the pathway involved in the perturbation under examination. The method provides a pathway score based on perturbation levels of genes and/or compounds and the information content of each gene and/or compound in the pathway, i.e., a pathway score indicates the extent to which other pathways are mapped to a gene/compound. For example, imagine that two genes are perturbed in a particular experiment. One gene maps to only one pathway, giving a high degree of probability that the perturbed pathway is the one identified in the mapping. The second gene maps to three pathways. In the later example, there is only one-third the probability that the pathway identified in the mapping is the one perturbed. The present invention provides a method for calculating the pathway scores, so that more weight is given to a score of a gene or compound that maps to only one pathway than to a score of a gene or compound that maps to multiple pathways. […] Where n=the total number of genes in the pathway; ipath—count=the number of pathways containing a gene; and j=the number of genes in the pathway that are perturbed. Another factor to be considered when weighting a pathway score is the degree of perturbation. Degree of perturbation can be calculated, for example, based on a number of standard deviations from a norm, and included in an equation such as the one shown above, so that not only the number of pathways is taken into account, but also accounts for the amount of gene transcript or compound present as compared to a control. Compounds were also linked to pathways using the KEGG database. KEGG links 676 compounds measured in AF1 to a total of 92 pathways. Of the 676 compounds under consideration, 77 were detected in the AF1 samples. […] The multiple mapping feature of KEGG makes it difficult to pinpoint the correct pathway when trying to link a compound to a specific pathway. […] A pathway score calculation is applied to the compounds to account for both information content (number of pathways a compound maps to) and perturbation level. The data were then combined to determine the number of reactions showing an enzyme and at least one compound perturbed, and to determine the number of pathways having at least one enzyme and one perturbed compound perturbed. The results of the analysis are represented in Tables 16 and 17, and were difficult to interpret, illustrating that the ability to draw conclusions from compound mapping to pathways is limited when absent additional data.

[2] = test system: Saccharomyces cerevisiae wild type strain BY4743; assay: AF1 metabolite analysis (GC-MS, LC-MS) of yeast cells treated with antifungal drugs; type: cell-based; parameters: Fold Change: scale not given here; conditions: for # Compounds perturbed by treatment: yeast, 2x MIC, two hours

Structure (SMILES): C[C@@H]1[C@H](O)[C@@H](C)/C=C/C=C/C=C/C=C/C=C/C=C/C=C/[C@H](O[C@@H]2O[C@H](C)[C@@H](O)[C@H](N)[C@@H]2O)C[C@@H]2O[C@](O)(C[C@@H](O)C[C@@H](O)[C@H](O)CC[C@@H](O)C[C@@H](O)CC(=O)O[C@H]1C)C[C@H](O)[C@H]2C(=O)O [Amphoteracin B]
- # Reactions (title: Number Of Pathways Having at Least One Enzyme and One Compound Perturbed) [1]: 37
- # Reactions having an enzyme and at least one compound perturbed [1]: 54
- # Compounds perturbed by treatment ([2]; P < 0.05): 16
- # Compounds perturbed by treatment ([2]; P < 0.1): 21
- Fold Change ([2]; metabolite 3-indolylacetonitri, platform nLC): −0.9998
- Fold Change ([2]; metabolite 4-aminobenzoic acid, platform pLC): 0
- Fold Change ([2]; metabolite 4-methylcatechol, platform nLC): 0
- Fold Change ([2]; metabolite 4-methylcatechol, platform pLC): 0
- Fold Change ([2]; metabolite 4ambutyrate/dimglyc, platform pLC): 0.01279
- Fold Change ([2]; metabolite 4aminobutyrate/dimg, platform nLC): −0.1983
- Fold Change ([2]; metabolite DL-aminoadipic acid, platform pLC): 0.4703
- Fold Change ([2]; metabolite DLaminoadipic acid, platform nLC): 1.411
- Fold Change ([2]; metabolite NacetylD-glucosamine, platform nLC): 0
- Fold Change ([2]; metabolite NacetylD-glucosamine, platform pLC): 0
- Fold Change ([2]; metabolite NacetylL-glutamate, platform nLC): −0.1078
- Fold Change ([2]; metabolite NacetylL-glutamate, platform pLC): 0
- Fold Change ([2]; metabolite NacetylL-ornithine, platform nLC): 0
- Fold Change ([2]; metabolite NacetylL-ornithine, platform pLC): 1.319
- Fold Change ([2]; metabolite decanoic acid, platform nLC): −0.08716
- Fold Change ([2]; metabolite desmosterol, platform GC): 0
- Fold Change ([2]; metabolite diaminopimelic acid, platform nLC): 0
- Fold Change ([2]; metabolite diaminopimelic acid, platform pLC): 0
- Fold Change ([2]; metabolite dihydrofolic acid, platform nLC): 0
- Fold Change ([2]; metabolite dihydrofolic acid, platform pLC): 0
- Fold Change ([2]; metabolite dipicolinic acid, platform pLC): 0
- Fold Change ([2]; metabolite disaccaride1, platform GC): −1
- Fold Change ([2]; metabolite disaccaride2, platform GC): −0.9977
- Fold Change ([2]; metabolite disaccaride3, platform GC): −0.9977
- Fold Change ([2]; metabolite ergosterol, platform GC): 2.303
- Fold Change ([2]; metabolite estrone, platform nLC): 0
- Fold Change ([2]; metabolite farnesol, platform nLC): 0
- Fold Change ([2]; metabolite folic acid, platform nLC): 0
- Fold Change ([2]; metabolite folic acid, platform pLC): 0
- Fold Change ([2]; metabolite fucosterol, platform GC): −0.6553
- Fold Change ([2]; metabolite fumaric/3m2oxobutan, platform nLC): 0.4423
- Fold Change ([2]; metabolite gallic acid, platform nLC): 0.1622
- Fold Change ([2]; metabolite gibberellic, platform nLC): 0
- Fold Change ([2]; metabolite glucosamine-6PO4, platform nLC): −0.9951
- Fold Change ([2]; metabolite glucosamine-6PO4, platform pLC): 0
- Fold Change ([2]; metabolite glucosamine, platform pLC): 0
- Fold Change ([2]; metabolite glutamate, platform pLC): 0.4341
- Fold Change ([2]; metabolite glutamic/acetylseri, platform nLC): 0.1414
- Fold Change ([2]; metabolite glutamine/lysine, platform nLC): 0.07919
- Fold Change ([2]; metabolite glutamine/lysine, platform pLC): 0.3981
- Fold Change ([2]; metabolite glutamine, platform GC): −0.9116
- Fold Change ([2]; metabolite glutathione, platform pLC): −0.03348
- Fold Change ([2]; metabolite glycanopyrose, platform GC): −0.958
- Fold Change ([2]; metabolite glycerol, platform GC): −0.815
- Fold Change ([2]; metabolite glycine, platform GC): 0.8807
- Fold Change ([2]; metabolite guanine, platform nLC): 0
- Fold Change ([2]; metabolite guanosine, platform nLC): 1.131
- Fold Change ([2]; metabolite guanosine, platform pLC): 0.7598
- Fold Change ([2]; metabolite hexadecanoic acid, platform GC): −0.2427
- Fold Change ([2]; metabolite histidine, platform nLC): 0
- Fold Change ([2]; metabolite histidine, platform pLC): 0
- Fold Change ([2]; metabolite homogentisic/uric, platform nLC): 0
- Fold Change ([2]; metabolite hydrocortisone, platform nLC): 0
- Fold Change ([2]; metabolite hydrocortisone, platform pLC): 0
- Fold Change ([2]; metabolite hypoxanthine, platform nLC): 0.1655
- Fold Change ([2]; metabolite hypoxanthine, platform pLC): 0.2057
- Fold Change ([2]; metabolite indole3-pyruvic acid, platform nLC): 0
- Fold Change ([2]; metabolite inostol/glucos/sorb, platform nLC): −0.5905
- Fold Change ([2]; metabolite iso citric acid, platform GC): −0.6183
- Fold Change ([2]; metabolite isocitric/citric/qu, platform nLC): 2.549
- Fold Change ([2]; metabolite isoleucine, platform GC): −0.9533
- Fold Change ([2]; metabolite itaconic acid dimes, platform pLC): 0
- Fold Change ([2]; metabolite jasmonic acid, platform nLC): 0
- Fold Change ([2]; metabolite kinetin, platform nLC): 0
- Fold Change ([2]; metabolite kinetin, platform pLC): 0
- Fold Change ([2]; metabolite lactic acid, platform nLC): −0.02583
- Fold Change ([2]; metabolite lanosterol, platform GC): −1
- Fold Change ([2]; metabolite lauric acid, platform nLC): 0.1225
- Fold Change ([2]; metabolite leucine/isoleucine/, platform nLC): 0.1319
- Fold Change ([2]; metabolite leucine/isoleucine/, platform pLC): 0.2746
- Fold Change ([2]; metabolite leucine, platform GC): −0.9443
- Fold Change ([2]; metabolite luteolin, platform nLC): 0
- Fold Change ([2]; metabolite luteolin, platform pLC): 0
- Fold Change ([2]; metabolite lysine, platform GC): −0.3925
- Fold Change ([2]; metabolite malic acid, platform GC): −0.963
- Fold Change ([2]; metabolite malic acid, platform nLC): 0.6212
- Fold Change ([2]; metabolite malonic acid, platform nLC): 0
- Fold Change ([2]; metabolite mannitol, platform pLC): 0.4543
- Fold Change ([2]; metabolite menthol*, platform nLC): −0.07013
- Fold Change ([2]; metabolite methionine, platform nLC): 0
- Fold Change ([2]; metabolite methionine, platform pLC): 0.3299
- Fold Change ([2]; metabolite mevalonic acid lactone, platform GC): −0.1276
- Fold Change ([2]; metabolite mevalonic lactone, platform pLC): −0.4606
- Fold Change ([2]; metabolite niacinamide, platform pLC): 0
- Fold Change ([2]; metabolite nicotinic acid, platform nLC): 0.3131
- Fold Change ([2]; metabolite nicotinic acid, platform pLC): −0.9989
- Fold Change ([2]; metabolite nopaline, platform nLC): 0.3342
- Fold Change ([2]; metabolite nopaline, platform pLC): 0
- Fold Change ([2]; metabolite octadecanoic acid, platform GC): 0.21
- Fold Change ([2]; metabolite oleic acid, platform GC): −0.4593
- Fold Change ([2]; metabolite oleic acid, platform nLC): 0.689
- Fold Change ([2]; metabolite ornithine2, platform GC): −1
- Fold Change ([2]; metabolite ornithine3, platform GC): −0.9853
- Fold Change ([2]; metabolite ornithine, platform nLC): 2.534
- Fold Change ([2]; metabolite ornithine, platform pLC): 0.5049
- Fold Change ([2]; metabolite orotic acid, platform nLC): 8380
- Fold Change ([2]; metabolite palmiteliadic acid, platform GC): 0.515
- Fold Change ([2]; metabolite palmitic acid, platform nLC): 0.3979
- Fold Change ([2]; metabolite phenylalanine, platform GC): −0.9797
- Fold Change ([2]; metabolite phenylalanine, platform nLC): −0.1906
